Series [1] concerns Plasmodium falciparum K1(Cq-res). Particulars: read-out: Plasmodium falciparum IC50.
Series [2] concerns Plasmodium falciparum 3D7. In words: Plasmodium falciparum assay. Format: cell-based.
The nature of series [3]: Determination of metabolic stability (liver microsomes). Particulars: rat liver microsomes, 20 μM, 15 min. Format: in vitro ADME. Put shortly:
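Wistar rat liver microsomes (0.25 mg/ml) in 2% sodium bicarbonate with NADPH-generating system plus UDPGA for glucuronidation; test article at 20 μM final, 15 min at 37° C, after 5 min pre-incubation. Reactions stopped with acetonitrile; remaining compound analysed by HPLC against microsome-free blanks, triplicates.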
(Liver microsomes are a subcellular fraction often used to study metabolism.)

Series [4] relates to Plasmodium falciparum DD2(Cq-res). Conditions: read-out: Plasmodium falciparum IC50.
Series [5] has as its system Plasmodium falciparum 7G8(Cq-res). Conditions: read-out: Plasmodium falciparum IC50.
The conditions of series [6]: mice.
Another series has as its system Plasmodium berghei K173. Conditions: NMRI female mice.
A further series deals with S.aureus ATCC29213. Particulars: time-kill curve FIG. 3, S.aureus ATCC29213.
The test system of series [7] is panel of 10 different non-fastidious bacteria. Kind of series: Screening against panel of non-fastidious bacteria.
Series [8] has as its system Staphylococcus aureus ATCC33591(resistant to methicillin). In words: MIC determination in broth microdilution assay. Particulars: B: Staphylococcus aureus ATCC33591(resistant to methicillin). In general terms: In broth dilution the organism is exposed to a series of concentrations in liquid medium.
For series [9], the system named is Enterococcus faecium #17501 (vancomycin-resistant clinical isolate). In words: MIC determination in broth microdilution assay. Conditions: E: Enterococcus faecium #17501 (vancomycin-resistant).
Another series concerns P.yoelii and P.berghei. Particulars: cited from earlier work.
In series [10] the test system is Streptococcus pneumoniae #998 (clinical isolate). In words: MIC determination in broth microdilution assay. Particulars: F: Streptococcus pneumoniae #998.
The nature of series [11]: Determination of solubility. It is filed as physicochemical. Conditions: reference chalcones. How it is done:
Determination of Solubility
Solubility of the compounds was determined by preparing a saturated solution of compound in 0.3 M phosphate buffer (pH 7.4±0.3) in a brown glass tube. The suspensions were rotated slowly for 24 hours. Aliquots were centrifuged for 10 minutes at 14.000 rpm and supernatants were diluted in 40% (v/v) acetonitrile in water prior to HPLC analysis. Concentrations of analytes were quantified against a standard curve and used as term of solubility. The HPLC-UV method used for the assessment of solubility is the same as used in the in vitro metabolism assay.

Series [12] deals with dihydroorotate dehydrogenase (DHODH). Kind of series: DHODH assay. It is filed as biochemical. Conditions: at 10 μM. How it is done: 100 μl chalcone or 0.1 M Tris-HCl pH 8.0 is added to a well in a 96-wells microtiter plate. Then 50 μl enzyme dilution is added. The microtiter plate is placed in the Powerwavex340 and the enzymatic reactions starts when adding 100 μl assay mixture. The reaction are measured every 20 sec. for 10 min. The samples with chalcones are compared with the samples with 0.1 M Tris-HCl pH 8.0 and the percent inhibition is calculated.
Enzyme dilution: The solution of recombinant purified enzyme is dissolved in 0.1 M Tris-HCl pH 8 to give an initial velocity of 0.04-0.05 ΔA/min.
2,6-dichlorophenolindophenol (DCIP)-stock solution: 40 mg DCIP and 10 ml 99% Ethanol are mixed for 10 min at RT. Then 100 μl 1.0 M Tris-HCl pH 8 and miliQ H2O are added to a final volume of 100 ml. The A600 of the DCIP-stock solution are measured in a microtiter plate on the Powerwavex340 (Bio-Tek instruments,Inc.)
[…]: 25 mM dihydroorotate stock-solution is prepared by first dissolving in the same amount of mol NaOH and then miliQ H2O is added to the final volume.
Assay mix (10 ml solution): 600 μl of DHODH-stock solution and X ml (depending on the A600 value of stock-solution) DCIP to a final A600=2.5 are mixed. Then 0.1 M Tris-HCl pH 8.0 are added to a final volume of 10 ml.
Preparation of compound soluton: A 10 mM stock-solution of compound (e.g. a chalcone derivative) is made in dimethylsulfoxid (DMSO). The compound is then diluted in 0.1 M Tris-HCl pH 8 to the test concentrations. The final DMSO concentration in the sample is 10%

Series [13] relates to parasitic or bacterial infections. In words: In vivo potency of chalcones.
Series [14] relates to Staphylococcus aureus ATCC29213. Kind of series: MIC determination in broth microdilution assay. Conditions: A: Staphylococcus aureus ATCC29213.
The subject of series [15] is cutaneous and visceral Leishmania infection. Particulars: cited from earlier work.
Series [16] has as its system Enterococcus faecalis ATCC29212. In words: MIC determination in broth microdilution assay. Conditions: D: Enterococcus faecalis ATCC29212.
A further series concerns Eschericia coli ESS. In words: MIC determination in broth microdilution assay. Conditions: H: Eschericia coli ESS.
A short description of the next series: Pharmacokinetic studies. It is filed as in vivo, mice. Conditions: for bioavailability: in mice. How it is done:
Samples of serum were taken at defined timepoints.
The supernatant was used for the analysis.
The flow rate was […], injection volume 10 μl.

The test system of series [17] is panel of six strains Helicobacter pylori. In words: MIC determination against Helicobacter pylori (agar dilution). Conditions: read-out: MICs against Helicobacter pylori. (Agar dilution tests growth on a series of plates holding different concentrations.)
Another series deals with S.aureus ATCC33591. Conditions: time-kill curve FIG. 2, S.aureus ATCC33591.
[18] abbreviates: Plasmodium falciparum 3D7 (Table 2), read-out: IC50.

The structures appear in SMILES notation. Values after ≈ are worked out from the molar mass of the structure shown. Read-outs that look alike come from different tables or passages of the source.

What is called IC50 is the concentration that inhibits the measured activity by half. On to `CN(C)CCOc1ccc(-c2ccccc2C(F)(F)F)cc1/C=C/C(=O)c1ccccc1CN(C)C` [Compound C130, (E)-3-[4-(2-Dimethylamino-ethoxy)-2′-trifluoromethyl-biphenyl-3-yl]-1-(2-dimethylaminomethyl-phenyl)-propenone], for which the IC50 in series [1] came to 40 nM; in series [2] (3D7(Cq-sen) (Table 3), read-out: Plasmodium falciparum IC50), 30 nM; in [2] (setting [18]), 30 nM; in series [4] it was 60 nM; in [5] it was 50 nM. Also, the “times more potent than LicA” value in [2] (dose-response curve at Plasmodium falciparum, FIG. 4) was 213 times. Moreover, the “Metabolic turn-over in vitro” value in series [3] is recorded as 6%. The same compound showed a Metabolic turn-over in [6] of 77%. In addition, the “effect on development of the infection” value in the series on Plasmodium berghei K173 (multiple oral administrations, FIG. 7) is recorded as “inhibit the development of the infection”.
On to `CCN(CC)Cc1ccccc1C(=O)/C=C/c1cc(-c2cc(C)cc(C)c2)ccc1OCCN(C)C` [Compound C030, (E)-1-(2-Diethylaminomethyl-phenyl)-3-[4-(2-dimethylamino-ethoxy)-3′,5′-dimethyl-biphenyl-3-yl]-propenone], for which, in the series on S.aureus ATCC29213, the MIC came out at 18.8 µM (≈ 9.11 µg/mL) and the “bactericidal action (CFU counts per ml above the MIC)” value was “bactericidal”. In addition, in [7], the “potency against Gram-positive pathogens in comparison with Licochalcone A” value is “increased potency”.
The term bioavailability denotes dose-corrected exposure relative to a reference, in per cent. Read a high bioavailability as much systemic uptake. For the compound `C=CC(C)(C)c1cc(/C=C/C(=O)c2ccc(O)cc2)c(OC)cc1O` [LicA, Licochalcone A], the MIC amounted to 37.5 µM (≈ 12.7 µg/mL) in [8]; 37.5 µM (≈ 12.7 µg/mL) in [9]; 75.0 µM (≈ 25.4 µg/mL) in series [10]; 37.5 µM (≈ 12.7 µg/mL) in [14]; 37.5 µM (≈ 12.7 µg/mL) in series [16]; 300.0 µM (≈ 102 µg/mL) against Eschericia coli ESS. In the series on P.yoelii and P.berghei, the “protection of mice from infection” value is “protects mice from infection with P.yoelii and P.berghei”. Further, the “Metabolic turn-over in vitro” value in series [3] and in series [3] (listed as Lica) was 100% in each case. In addition, in [11], the aqueous solubility entry is “approximately 0.01 mg/ml”. Besides, the “Inhibition of DHODH” value in [12] turned out to be 25%. The compound further gave an in vivo potency in series [13] of 50 mg/kg. In addition, in series [15], the “efficacy in experimental animal models” value was “efficacy in experimental animal models of cutaneous and visceral Leishmania infection”. In “Pharmacokinetic studies”, the bioavailability is listed as under 6%. This compound came in with a t1/2 in vivo in the series “Pharmacokinetic studies” (in vivo) of 10 min. Moreover, the “bactericidal activity against common pathogenic Gram-positive non-fastidious bacteria” value in series [7] (Gram-positive bacteria) is reported as “moderate bactericidal activity”. The “activity against Eschericia coli” value in [7] (prototype pathogenic Gram-negative bacterium) was “modest or no activity”.
`CC(=O)Nc1cccc(C(=O)/C=C/c2cc(-c3cc(C)cc(C)c3)ccc2OCCN(C)C)c1` [Compound C088, N-(3-{3-[4-(2-Dimethylamino-ethoxy)-3′,5′-dimethyl-biphenyl-3-yl]-(E)-acryloyl}-phenyl)-acetamide]: in series [17], the MIC was 12 to 25 µM (≈ 5.48 to 11.4 µg/mL).
Take `COc1ccc(C(=O)/C=C/c2cccc(OCCN(C)C)c2)c(OC)c1OC` [Compound C043, (E)-3-[3-(2-Dimethylamino-ethoxy)-phenyl]-1-(2,3,4-trimethoxy-phenyl)-propenone]: the bioavailability in the series “Pharmacokinetic studies” was 42%.
Regarding `COc1ccc(C(=O)/C=C/c2cc(-c3cc(C)cc(C)c3)ccc2OCCN(C)C)cc1` [Compound C023, (E)-3-[4-(2′-Dimethylamino-ethoxy)-3′,5′-dimethyl-biphenyl-3-yl]-1-(4-methoxy-phenyl)-propenone], the MIC worked out at 4.7 µM (≈ 2.02 µg/mL) in series [8]; 4.7 µM (≈ 2.02 µg/mL) in [9]; 18.8 µM (≈ 8.08 µg/mL) in series [10]; 4.7 µM (≈ 2.02 µg/mL) in series [14]; 4.7 µM (≈ 2.02 µg/mL) in series [16]; 9.4 µM (≈ 4.04 µg/mL) with S.aureus ATCC33591. Moreover, the MIC with Eschericia coli ESS came to 9.4 µM (≈ 4.04 µg/mL). Also, the “bactericidal action (CFU counts per ml above the MIC)” value with S.aureus ATCC33591 was “bactericidal”. For the same compound, in series [7], the “potency against Gram-positive pathogens in comparison with Licochalcone A” value is recorded as “increased potency”.
As for `Cc1ccccc1-c1ccc(OCCN(C)C)c(/C=C/C(=O)c2ccccc2CN(C)C)c1` [Compound C035, (E)-3-[4-(2-Dimethylamino-ethoxy)-2′-methyl-biphenyl-3-yl]-1-(2-dimethylaminomethyl-phenyl)-propenone], the IC50 in [2] (setting [18]) worked out at 100 nM. Besides, the effect on parasitaemia result in the series with Plasmodium berghei K173 (multiple intra venous administrations, FIG. 6) is given as “significant decrease in the parasitaemia”.

Values taken from patent US7423181B2, “Aminoalkoxy-functional chalcones” (Lica Pharmaceuticals A/S, priority 2002, dated 2008).
